In the supplement of paper PMC5770543:
± gives the standard deviation.

Tests used:
[1] = system: Plasmodium falciparum 3D7; experiment: EC50 growth inhibition (60 h, SYBR Green); conditions: stage: ring-stage start
[2] = system: Toxoplasma gondii RH tachyzoites; experiment: % growth inhibition vs DMSO (48 h luciferase); higher = more inhibition; conditions: 10 µM
[3] = system: Plasmodium falciparum 3D7; experiment: % inhibition of schizont-to-ring transition vs DMSO; higher = more inhibition
How it was run: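 Schizont-to-ring transition inhibition is the formation of new rings relative to vehicle controls. Tightly synchronised P. falciparum schizonts at about 40–42 hours post-invasion (1% parasitemia, 2.5% hematocrit, AlbuMAX-supplemented RPMI) were treated with compound at 1, 3 or 10 µM, alongside vehicle and positive controls. After glutaraldehyde fixation, Triton permeabilisation and Hoechst 33342 staining, at least 100,000 events were counted by flow cytometry, and values are the mean of three experiments.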

[4] = system: Toxoplasma gondii RH tachyzoites; experiment: plaque count per well; higher = less inhibition; extreme values may be limits of the assay; conditions: 10 µM; 8-10 days
Protocol: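 T. gondii RH tachyzoites expressing firefly luciferase were grown in HFF monolayers for 48 h with compound. % growth inhibition at 10 µM and EC50 (2-fold dilutions from 10 µM) were read by luminescence relative to 1% DMSO; EC50 listed as 10 (not determined, <80% inhibition) is left out. Plaque assays: 50 tachyzoites per well with 10 µM compound for 8-10 days, giving plaque count and area by crystal violet/ImageJ. Egress: median time to egress after 1 µM A23187 ionophore following 24 h of 10 µM compound (DMSO ~1.8 min; >10 = no egress within 10 min).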
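Wherever % growth inhibition vs DMSO (48 h luciferase) is given: tested in triplicate wells of 96-well plates on confluent HFF monolayers, with 1% DMSO wells as negative control in four replicates.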

Row | Structure (SMILES) | EC50 growth inhibition [1] [µM] | % growth inhibition [2] [%] | % inhibition of schizont-to-ring transition ([3]; 1 µM) [%] | % inhibition of schizont-to-ring transition ([3]; 3 µM) [%] | % inhibition of schizont-to-ring transition ([3]; 10 µM) [%] | plaque count per well [4]
1 | COc1ccc(N2CCN(C(CNC(=O)CC(C)(C)C)c3ccc4c(c3)OCO4)CC2)cc1 (stereo unspecified) | 1.68 | < 0 | 8.37 | 17.9 | 32.6 | 24
2 | Cc1ccc(CN2CCC(C(=O)Nc3ccc(-c4cc5ccccc5[nH]4)cc3)CC2)o1 | 2.17 | < 0 | 21.9 | 44.3 | 68.2 | 38
3 | CCN1CCN(Cc2ccc(NC(=O)c3cc4ccc5cccnc5c4[nH]3)cc2)CC1 | 0.161 | < 0 | 36.2 | 49.2 | 55.2 | 31
4 | Cc1cc(C)c2nc(N3CCC(C(=O)NCCCN4CCC(N5CCCCC5)CC4)CC3)sc2c1 | 1.08 | < 0 | 18.8 | 46.7 | 59.8 | 16
5 | CN1c2ccccc2N(C)C1c1ccc2c(c1)OCO2 | 9.76 | < 0 | < 0 | < 0 | 18.3 | 23
6 | CCOc1cc2c(cc1OCC)C(c1cc(C)c(O)c(C)c1)NCC2 (stereo unspecified) | 0.792 | 14.9 ± 14 | 6.53 | 17.1 | 43.5 | 31
7 | Clc1ccc2[nH]c3c(NCCCN4CCOCC4)ncnc3c2c1 | 0.189 | < 0 | 40.9 | 53.1 | 56.3 | 23
8 | COc1ccc(-n2ccnc2SCC(=O)Nc2cc(C)ccc2C)c(OC)c1 | 0.226 | < 0 | 41.6 | 49.9 | 56.2 | 31
9 | Cc1cc(C=C2SC(=Nc3ccccc3)N(C3CCCC3)C2=O)c(C)n1-c1ccc(Cl)cc1 | 5.27 | < 0 | 17.8 | 26.2 | 37.9 | 23
10 | COc1cccc(Nc2nc(N)c3ccccc3n2)c1 | 1.32 | < 0 | < 0 | 12.3 | 41.7 | 0
11 | Cc1cc(=O)oc2c1ccc1oc(C(=O)c3ccccc3)c(C)c12 | 1.87 | < 0 | 10.7 | 25.9 | 45.3 | 28
12 | C[n+]1c2ccccc2nc2ccc(NCCO)cc21 | 0.0964 | < 0 | 33.2 | 48.3 | 65.4 | 0
13 | Cc1cc(N2CCN(C3CCCC3)CC2)n2c(nc3ccccc32)c1C#N | 0.878 | < 0 | 33.3 | 39.3 | 51.3 | 30
14 | c1ccc(/C2=N/c3ccccc3/N=C(/c3ccccc3)c3ccccc32)cc1 | 1.58 | < 0 | 57.3 | 79.1 | 80.6 | 0
15 | COc1ccccc1N1CCN(C(CNS(=O)(=O)c2ccc(Cl)cc2)c2cccnc2)CC1 (stereo unspecified) | 2.26 | 4.77 ± 8.3 | 16 | 20.5 | 49.3 | 34
16 | CCc1c(C)c(=N)c2ccccc2n1C | 3.38 | < 0 | 5.96 | 11.3 | 33.6 | 25
17 | Cc1c(C)n(Cc2ccc(F)cc2)c2ccc(C(=O)NCc3ccco3)cc12 | 1.77 | < 0 | 36.3 | 40.3 | 53.4 | 21
18 | Cc1ccc(-c2cc(C(=O)Nc3ccc(S(=O)(=O)N4CCCCC4)cc3)[nH]n2)c(O)c1 | 9.18 | < 0 | 28.1 | 58.9 | 67.5 | 18
19 | COc1ccc(-c2cc3c(SCC(=O)Nc4cc(C(F)(F)F)ccc4Cl)nccn3n2)cc1 | 0.259 | < 0 | 35.7 | 37.5 | 49.5 | 28
20 | COc1cccc(C(=O)NC(c2ccc(C)cc2)c2cc(Cl)c3cccnc3c2O)c1 (stereo unspecified) | 7.64 | < 0 | 30.4 | 42.1 | 49.9 | 0
21 | O=C(CCc1ccco1)NC1CCN(CC2(c3ccc(Cl)cc3)CCC2)CC1 | 0.509 | < 0 | 18.8 | 41 | 67.5 | 23

Row | Structure (SMILES) | EC50 growth inhibition [1] [µM] | % growth inhibition [2] [%] | % inhibition of schizont-to-ring transition ([3]; 1 µM) [%] | % inhibition of schizont-to-ring transition ([3]; 3 µM) [%] | % inhibition of schizont-to-ring transition ([3]; 10 µM) [%] | plaque count per well [4]
22 | CCn1c2c(c(=N)c3c1CCC3)CCCC2 | 2.64 | < 0 | 43.8 | 47.9 | 56.4 | 34
23 | O=C(Nc1ccc(-c2nc3ccccc3[nH]2)cc1)c1ccc(Cl)c(Cl)c1 | 7.3 | 7.15 ± 8.1 | 6.82 | 10.1 | 44.2 | 23
24 | CCn1c(CN2CCN(Cc3ccccc3)CC2)nc2cc(NC(=O)c3cccs3)ccc21 | 0.615 | < 0 | 40.6 | 47.9 | 56 | 0
25 | OCCNc1nc(Nc2ccc(Cl)c(Cl)c2)nc2ccccc12 | 0.18 | < 0 | 51 | 66.3 | 68.9 | 0
26 | CC(C)=CCN1CCC(C(=O)Nc2ccc(-c3nc4ccccc4[nH]3)cc2)CC1 | 0.464 | 19.7 ± 20 | 18 | 45.8 | 59.4 | 0
27 | COc1ccc(-c2cc3c(nn2)-c2ccccc2C3=O)cc1 | 0.781 | < 0 | 14.8 | 34.7 | 50.6 | 29
28 | COc1ccc(-c2c(C)nn3c(N)c(C#N)cnc23)cc1OC | 3.71 | 7.54 ± 13 | 71.1 | 74.9 | 76.1 | 22
29 | CN1C=C(c2ccc3ccccc3n2)C(c2c[nH]c3ccccc23)c2ccccc21 (stereo unspecified) | 0.638 | < 0 | 26.7 | 37.7 | 70.6 | 0
30 | c1ccc(-c2ccc(-c3nc4ccccc4[nH]3)cc2)cc1 | 0.928 | 12.3 ± 15 | 8.54 | 24.5 | 41 | 0
31 | COc1ccc(Br)cc1C1Nc2ccc3ccccc3c2C2=C1C(=O)CC(c1ccccc1)C2 (stereo unspecified) | 0.387 | 12.1 ± 11 | < 0 | 4.06 | 29.3 | 0
32 | COc1ccc(OC)c(C2C3=C(CC(C)(C)CC3=O)N(c3ccc(Cl)c(Cl)c3)C3=C2C(=O)CC(C)(C)C3)c1 | 7.74 | < 0 | 16.9 | 20.7 | 50.7 | 38
33 | CC(C)c1ccc(CNCC(O)c2ccccc2)cc1 (stereo unspecified) | 2.65 | 10.5 ± 1.3 | 7.33 | 20.6 | 59.6 | 0
34 | COc1ccc(NC(=O)C2c3ccccc3C(=O)N(CC(C)C)C2c2cccs2)cc1 (stereo unspecified) | 0.0469 | < 0 | 78.1 | 78 | 76.6 | 27
35 | O=C(O)C1Cc2c([nH]c3ccccc23)C(c2ccc(Cl)cc2Cl)N1 (stereo unspecified) | 1.3 | < 0 | 8.54 | 18.6 | 26.4 | 32
36 | CCOC(=O)C1CCN(C(=O)CN2C(=O)c3ccccc3C2c2c[nH]c3ccccc23)CC1 (stereo unspecified) | 0.971 | < 0 | 15.7 | 32.3 | 65.4 | 31
37 | OC(CNC1CCCCC1)Cn1c2ccccc2c2ccccc21 (stereo unspecified) | 0.985 | < 0 | 48.9 | 69 | 75.3 | 21
38 | COc1ccc(CN2CCN(Cc3ccccc3)CC2)c(O)c1 | 2.17 | 11.2 ± 5.4 | 13.1 | 19.6 | 40.3 | 29
39 | CCOc1ccc(CN2CCN(CC(O)COc3ccc(OCC(O)CN4CCN(Cc5ccc(OCC)cc5)CC4)cc3)CC2)cc1 (stereo unspecified) | 3.12 | 4.15 ± 5.8 | < 0 | 14.6 | 59.9 | 0
40 | O=C(Nc1ccc(Cl)cc1)N1CCN(c2ccc3nncn3n2)CC1 | 6.37 | < 0 | 13.1 | 24.8 | 54.3 | 22
41 | COc1ccccc1CNC(=O)CCn1c(=O)[nH]c2ccsc2c1=O | 6.07 | < 0 | 11.4 | 30.6 | 49.9 | 22
42 | COc1ccc(-c2nonc2NC(=O)c2cccc(C)c2)cc1OC | 0.628 | 3.28 ± 4.1 | 32.8 | 59 | 67.1 | 28

Row | Structure (SMILES) | EC50 growth inhibition [1] [µM] | % growth inhibition [2] [%] | % inhibition of schizont-to-ring transition ([3]; 1 µM) [%] | % inhibition of schizont-to-ring transition ([3]; 3 µM) [%] | % inhibition of schizont-to-ring transition ([3]; 10 µM) [%] | plaque count per well [4]
43 | CCOc1cc(CNC(C)C(O)c2ccccc2)cc(Cl)c1OCC (stereo unspecified) | 1.06 | 15 ± 24 | 2 | 17.2 | 44.2 | 0
44 | CCOc1cc(Cl)c(C(C)NC(=O)c2cccc(OC)c2)cc1OCC (stereo unspecified) | 0.316 | < 0 | 42.4 | 76.9 | 78.7 | 25
45 | COc1ccc(CN2CCCC(C(=O)c3ccc(C(F)(F)F)cc3)C2)c(O)c1 (stereo unspecified) | 0.912 | < 0 | 9.13 | 32 | 51.1 | 20
46 | COc1ccccc1CNC(=O)C1c2ccccc2C(=O)N(CC(C)C)C1c1cccs1 (stereo unspecified) | 0.926 | < 0 | 34.5 | 45 | 68.1 | 24
47 | CCCCc1c(CCC)c(=N)c2ccccc2n1C | 3.93 | < 0 | 7.81 | 11.2 | 39.6 | 23
48 | CCCN(CCC)CC(O)COc1ccccc1C(=O)Nc1ccccc1 (stereo unspecified) | 0.42 | < 0 | 33 | 65.6 | 73.5 | 25
49 | COc1ccc2c(c1OC)C(=O)N1c3ccccc3N=C(c3ccc(C)cc3)CC21 (stereo unspecified) | 6.08 | < 0 | 20.9 | 71.5 | 80.7 | 32
50 | OC(CNC1CCCC1)Cn1c2ccccc2c2ccccc21 (stereo unspecified) | 0.723 | 15.9 ± 6.6 | 22.3 | 40.1 | 63.4 | 0
51 | Cc1cccc(N2C(=O)C3C(C2=O)C2(c4ccccc4)C(=O)C3(c3ccccc3)C(c3ccc4c(c3)OCO4)=C2c2ccc3c(c2)OCO3)c1 (stereo unspecified) | 1.02 | < 0 | < 0 | < 0 | 17.3 | 20
52 | CCOC(=O)C1(Cc2ccccc2)CCN(Cc2cccc(OC)c2O)CC1 | 1.33 | 1.84 ± 3.2 | 25.8 | 34 | 55.9 | 0
53 | CCCCc1c(C)nc2c(OC)cccc2c1O | 2.64 | 9.6 ± 15 | 41.9 | 45.3 | 49.4 | 0
54 | CN1CCN(c2nc(Nc3ccc(O)cc3)nc3ccccc23)CC1 | 1.26 | < 0 | 34.7 | 33.4 | 52.2 | 29
55 | O=C(Nc1ccc(CN2CCOCC2)cc1)c1ccc(-c2ccc(Br)cc2)o1 | 1.42 | 8.26 ± 14 | 40.3 | 45.9 | 59.2 | 30
56 | Cc1ccc(CSCc2ccc(C(=O)NC3CC3)o2)cc1 | 1 | 3.19 ± 5.5 | 14.1 | 44.2 | 67.4 | 25
57 | CN(C)c1ccc(N2C(N)=NC(N)=NC2(C)C)cc1 | 5.68 | < 0 | 7.46 | 13.2 | 46.8 | 23
58 | O=C(CSc1ccc2nnc(-c3cccc(F)c3)n2n1)Nc1ccc2c(c1)OCO2 | 6.57 | 15.9 ± 9.8 | 32 | 49.9 | 72.7 | 25
59 | CC1=C(CC(=O)c2cccc([N+](=O)[O-])c2)C(=O)c2ccccc2C1=O | 9.85 | < 0 | 32.3 | 55.7 | 59.9 | 0
60 | COc1ccc(N2CCN(C(CNC(=O)C3CCCCC3)c3ccc4c(c3)OCO4)CC2)cc1 (stereo unspecified) | 6.24 | < 0 | 41.5 | 44.2 | 49.2 | 23
61 | COc1ccc(CNC2CCN(c3ccc(NC(=O)c4cccc(Cl)c4)cc3)CC2)cc1OC | 0.492 | 3.03 ± 5.2 | < 0 | 28.3 | 38.6 | 0
62 | CCCCCCc1cc2cc(-c3nc4ccccc4[nH]3)c(=Nc3ccccc3C)oc2cc1O | – | < 0 | 9.35 | 11.5 | 23.5 | 3
